The values below come from patent US4895589A, “Heterocyclic compounds” (Imperial Chemical Industries PLC, priority 1985, dated 1990).

Data set [1] deals with Rice. Briefly: Intermediate Retardant Test, rice. The following applies: Oryza sativa, 672 h, ~28 days, Table VII, read-out: Percentage Reduction in Height of Rice (Compared to formulation blank). Format: in vivo, Rice (Ishikari). The procedure:
(§1) Three species are involved in this test RICE, SPRING-BARLEY and APPLES. The variety and growth stages at spray are outlined in Table VI. Compounds were applied at 1000 ppm and 4000 ppm respectively (1 kg and 4 kg ha^-1 at a field volume of 1000 l/ha^-1) as an overall spray. This gives a foliar and root component in the test, i.e. this test will detect the activity of both root and foliar acting compounds. The rice was grown in 4" `paddy` pots, i.e. the roots and bottom of the stems are immersed in water under conditions corresponding to those in paddy fields. Spring barley and apples were grown in 4" pots. The plants were assessed for height to top-most ligule at approximately 28 days after treatment for spring barley and rice and for height to apex at approximately 28 days after the treatment for apples. In each case the result for the 1000 ppm and 4000 ppm test for each compound is compared to the height of the formulation blank in that test, presented as a percentage reduction in height compared to the formulation blank.
as §1, with “in Table XIV. Compounds were” for “in Table VI. Compounds were”, “that test, and presented as” for “that test, presented as”

Another data set concerns Spring Barley. Briefly: Intermediate Retardant Test, spring barley. Format: in vivo, Spring Barley (Atem/kym). The following applies: Hordeum vulgare, 672 h, ~28 days, Table VIII, read-out: Percentage Reduction in Height of Spring Barley (Compared to formulation blank). The protocol:
as §1
as §1, with “in Table XIV. Compounds were” for “in Table VI. Compounds were”, “that test, and presented as” for “that test, presented as”

The subject of a further data set is Apples. Briefly: Intermediate Retardant Test, apples. Conditions: 672 h, ~28 days, Table IX, read-out: Percentage Reduction in Height of Apples (Compared to formulation blank). Format: in vivo, Apples (Red Delicious). The protocol: as §1
as §1, with “in Table XIV. Compounds were” for “in Table VI. Compounds were”, “that test, and presented as” for “that test, presented as”

The test system of data set [2] is Wheat. Conditions: WW, 4000 ppm, 2-3 weeks.
Description: (§5) The compounds were tested for plant growth regulator activity against up to tweleve plant species for various growth effects relevant to plant growth regulation.
(§6) After spray, the plants were grown in a glasshouse with 25° C. day/22° C. night temperatures and supplementary lighting was supplied when necessary (from mercury vapour lamps), to provide a 16 hour photoperiod. The exception to this were the temperate cereals, wheat and barley, which were grown in 16° C. day 13° C. night temperatures
(§7) After 2-3 weeks in the glasshouse, depending on the time of year, the plants were visually assessed for morphological characteristics. Formulations blanks were used as controls to assess the Plants.
The test system of the next data set is Maize. The following applies: MZ, 4000 ppm, 2-3 weeks.
The subject of a further data set is Dacrylis glomerata. Conditions: DA, 4000 ppm, 2-3 weeks.
For another data set, the system named is Soya. Conditions: SY, 4000 ppm, 2-3 weeks.
Another data set has as its system Tomato. Conditions: TO, 4000 ppm, 2-3 weeks.
The test system of a further data set is Vines. Conditions: VN, 4000 ppm, 2-3 weeks.
For a further data set, the system named is Lettuce. Conditions: LT, 4000 ppm, 2-3 weeks.
In data set [3] the test system is plant species of Whole Plant Screen (1) or (2). Briefly: Across screen comparison: total retardation relative to paclobutrazol (Whole Plant Screens (1) and (2)). It is filed as in vivo. Conditions: compounds of Table I, Table X. The text has this: The following Example is a general indicative comparison of compounds from EP No. 0052424 with compounds from the preferred class in the present invention. The compounds have not been side-by-side tested on this Example because of the large numbers involved but the retardant activity can be compared using a standard which has been on each test.
The compounds which are compared in this Example have been tested on one of two tests. These are the Whole Plant Screen (1) and Whole Plant Screen (2) the methods for which are described in Examples 17 and 18 respectively.
An across screen comparison between compounds is made by expressing the total retardation (ie. sum of retardation scores recorded for each species tested) caused by the compound as a percentage of the total retardation caused by the standard in that test. The standard chemical gives a measure of the performance of the test and environmental factors. By expressing the test compound activity as a percentage of the standard compound activity these factors can be eliminated . The same standard has been used in every test and this is paclobutrazol a proprietory growth regulator.

Data set [4] has as its system Barley. The following applies: BR, 4000 ppm, 2-3 weeks.
Description: as §5, §6, §7
A further data set relates to Agrostis tenius. The following applies: AT, 4000 ppm, 2-3 weeks.
In another data set the test system is Cynosurus cristatus. Conditions: CC, 4000 ppm, 2-3 weeks.
The subject of data set [5] is Barley. Briefly: Whole Plant Screen (2), barley. It is filed as in vivo, Barley (Atem). The following applies: BR, 4000 ppm, 2-6 weeks, Table V. The protocol: (§2) Compound numbers 1, 5 and 7 (of the present invention) were tested against compounds A, B, C and D (compound Nos. 12, 2, 24 and 50 of Table 1 EP No. 0052424) on whole plant screen (2). The compounds were tested of plant growth regulator activity against five species and for various growth effects relevant to plant growth regulation. The structures are set out in FIG. 1.
(§3) The plant species used in this screen are presented in Table XII with the leaf stage at which they were sprayed Each chemical was applied at 4000 ppm (4 kg/ha in a 1000 l/ha field volume) using a tracksprayer and a SS8004E (Teejet) nozzle. […]

Data set [6] deals with Wheat. Briefly: Whole Plant Screen (2), wheat. It is filed as in vivo, Wheat (Timmo). Conditions: WW, 4000 ppm, 2-6 weeks, Table V. The procedure: Compound numbers 12-13, 16-17 and 19-20 were tested on an alternative whole plant screen (2). The compounds were tested for plant growth regulator activity against five species for various growth effects relevant to plant growth regulation.
The plant species used in this screen are presented in Table IV with the leaf stage at which they were sprayed. Each chemical was applied at 4000 ppm (4 kg/ha in a 1000 l/ha field volume) using a tracksprayer and a SS8004E (Teejet) nozzle. […]
After 2-6 weeks in the glasshouse, depending on the time of year, the plants were visually assessed for morphological characteristics. Formulation blanks were used as controls to assess the plants. […]

The test system of data set [7] is Rice. Briefly: Whole Plant Screen (2), rice. Format: in vivo, Rice (Ishikari). Conditions: RC, 4000 ppm, 2-6 weeks, Table V. The protocol:
(§4) After 2-6 weeks in the glasshouse, depending on the time of year, the plants were visually assessed for morphological characteristics. Formulation blanks were used as controls to assess the plants.
as §2, §3

A further data set has as its system Apple. Briefly: Whole Plant Screen (2), apple. It is filed as in vivo, Apple (Red Delicious). The following applies: Ap, 4000 ppm, 2-6 weeks, Table V. The procedure:
as §4, §2, §3

Description for Agrostis tenius: as §5, §6, §7
Description for Dacrylis glomerata: as §5, §6, §7
Description for Maize: as §5, §6, §7
Description for Soya: as §5, §6, §7
Description for Tomato: as §5, §6, §7
Description for Vines: as §5, §6, §7

With `CCCCCCC#CC(O)(Cn1cncn1)C(C)(C)C` (stereo not drawn) [Compound 4, 2,2-dimethyl-3-hydroxy-3-(oct-1-yne-1-yl)-4-(1,2,4-triazol-1-yl)-butane], in the data set on Rice [1], the Percent reduction in rice plant height vs formulation blank at 4000 ppm amounted to 5.8%. Moreover, the height reduction vs blank at 1000 ppm with Spring Barley was 23.7%. Besides, the height reduction vs blank at 4000 ppm with Spring Barley was determined as 27.5%. Moreover, the percent reduction in plant height vs formulation blank at 1000 ppm in the data set with Apples stood at 8.2%. In addition, in the data set with Apples, the percent reduction in plant height vs formulation blank at 4000 ppm was found to be 21%. The “Retardation score (1-3) with greening (G), apical damage (A), tillering/side shooting (T)” value (“Retardation score … tillering/side shooting (T)” for short) with Wheat [2] is 1GT; in the data set with Maize, 1G; in the data set on Dacrylis glomerata, 1 (10-30% retardation); with Soya, 1G; in the data set on Tomato, 2G; with Vines it was 1G. Also, in the data set with Lettuce, the “Retardation score … tillering/side shooting (T)” value is 2 (21-60% retardation).
For `CCCC(C)C#CC(O)(Cn1cncn1)C(C)(C)C` (stereo not drawn) [Compound 9, 2,2-dimethyl-3-hydroxy-3-(3-methyl-hex-1-yne-1-yl)-4-(1,2,4-triazol-1-yl)-butane], in the data set with Rice [1], the Percent reduction in rice plant height vs formulation blank at 1000 ppm stood at 8.2%. Also, the Percent reduction in rice plant height vs formulation blank at 4000 ppm in the data set with Rice [1] is 32%. For the same molecule, in the data set with Spring Barley, the height reduction vs blank at 1000 ppm was 15.7%. Further, the height reduction vs blank at 4000 ppm in the data set on Spring Barley was 32.9%. Further, in the data set with Apples, the percent reduction in plant height vs formulation blank at 4000 ppm stood at 10.8%. For the same molecule, the “Total Retardation expressed as a percentage of the total retardation caused by paclobutrazol” value in [3] is listed as 73.9 % of paclobutrazol. Also, the “Retardation score … tillering/side shooting (T)” value was 2GT in the data set with Wheat [2]; 1 (10-30% retardation) with Barley [4]; 1 (10-30% retardation) in the data set on Agrostis tenius; 2 (21-60% retardation) in the data set with Cynosurus cristatus; 2 (21-60% retardation) in the data set on Dacrylis glomerata; 2GAT with Soya. The figures for the “Retardation score … tillering/side shooting (T)” value in the data set on Tomato, with Vines and in the data set on Lettuce were 2G, 2GT and 1 (10-30% retardation), respectively.
On to `CC(C)(C)C(O)(C#CCC1CC1)Cn1cncn1` (stereo not drawn) [Compound 16, 2,2-Dimethyl-3-hydroxy-3-(3-cyclopropyl-prop-1-yne-lyl)-4-(1,2,4-triazol-1-yl)-butane], for which, in the data set with Barley [5], the “G = Greening effect” value is 1 (10-30%) and the “I = Interligular or internodal length reduction” value is given as 3 (61-100%). The “T = Tillering or side shooting” value with Wheat [6] was 1 (10-30%). For the same molecule, in the data set on Rice [7], the “G = Greening effect” value was 2 (31-60%), the “I = Interligular or internodal length reduction” value was 3 (61-100%), the “R = Retardation” value is 3 (61-100%) and the “T = Tillering or side shooting” value is on record as 1 (10-30%). In the data set with Apple, the “A = Apical damage” value is listed as 2 (31-60%), the “G = Greening effect” value was 2 (31-60%) and the “T = Tillering or side shooting” value is listed as 2 (31-60%). Further, in the data set on Rice [1], the Percent reduction in rice plant height vs formulation blank at 1000 ppm was determined as 14% and the Percent reduction in rice plant height vs formulation blank at 4000 ppm turned out to be 34%. Also, in the data set on Spring Barley, the height reduction vs blank at 1000 ppm worked out at 11% and the height reduction vs blank at 4000 ppm worked out at 24%. Further, in the data set on Apples, the percent reduction in plant height vs formulation blank at 1000 ppm was found to be 31.8% and the percent reduction in plant height vs formulation blank at 4000 ppm was 62.8%. In addition, the “Total Retardation expressed as a percentage of the total retardation caused by paclobutrazol” value in [3] was 100.0 % of paclobutrazol.
In the case of `CCCCC#CC(O)(Cn1cncn1)C(C)(C)CF` (stereo not drawn) [Compound 17, 2,2-dimethyl-1-fluoro-3-hydroxy-3-(hex-1-yne-1-yl)-4-(1,2,4-triazole-1-yl)-butane], in the data set on Barley [5], the “I = Interligular or internodal length reduction” value is reported as 2 (31-60%). Besides, in the data set on Wheat [6], the “G = Greening effect” value is listed as 1 (10-30%) and the “T = Tillering or side shooting” value is given as 1 (10-30%). Moreover, in the data set with Apple, the “A = Apical damage” value was 3 (61-100%) and the “T = Tillering or side shooting” value was 2 (31-60%). For the same molecule, the Percent reduction in rice plant height vs formulation blank at 4000 ppm with Rice [1] turned out to be 22%. The height reduction vs blank at 4000 ppm in the data set with Spring Barley turned out to be 24%. In the data set on Apples, the percent reduction in plant height vs formulation blank at 1000 ppm came to 9.9% and the percent reduction in plant height vs formulation blank at 4000 ppm worked out at 54.5%. Moreover, in data set [3], the “Total Retardation expressed as a percentage of the total retardation caused by paclobutrazol” value is 150.0 % of paclobutrazol.
